# Test results reported in US9926282B2, “Phthalazinones and isoquinolinones as rock inhibitors” (BRISTOL-MYERS SQUIBB COMPANY, priority 2013, dated 2018).
# Columns and labels:
# ROCK1 = ROCK1 (Homo sapiens (Human), UniProt Q13464); experiment: ROCK assay (LABCHIP peptide phosphorylation), ROCK1; format: biochemical; details: 5 μM ATP, 1.5 μM peptide substrate; read-out: ROCK1 IC50
# ROCK2 = ROCK2 (Homo sapiens (Human), UniProt O75116); experiment: ROCK assay (LABCHIP peptide phosphorylation), ROCK2; format: biochemical; details: 5 μM ATP, 1.5 μM peptide substrate
# Sequence of ROCK2 (O75116 whole entry, species assumed): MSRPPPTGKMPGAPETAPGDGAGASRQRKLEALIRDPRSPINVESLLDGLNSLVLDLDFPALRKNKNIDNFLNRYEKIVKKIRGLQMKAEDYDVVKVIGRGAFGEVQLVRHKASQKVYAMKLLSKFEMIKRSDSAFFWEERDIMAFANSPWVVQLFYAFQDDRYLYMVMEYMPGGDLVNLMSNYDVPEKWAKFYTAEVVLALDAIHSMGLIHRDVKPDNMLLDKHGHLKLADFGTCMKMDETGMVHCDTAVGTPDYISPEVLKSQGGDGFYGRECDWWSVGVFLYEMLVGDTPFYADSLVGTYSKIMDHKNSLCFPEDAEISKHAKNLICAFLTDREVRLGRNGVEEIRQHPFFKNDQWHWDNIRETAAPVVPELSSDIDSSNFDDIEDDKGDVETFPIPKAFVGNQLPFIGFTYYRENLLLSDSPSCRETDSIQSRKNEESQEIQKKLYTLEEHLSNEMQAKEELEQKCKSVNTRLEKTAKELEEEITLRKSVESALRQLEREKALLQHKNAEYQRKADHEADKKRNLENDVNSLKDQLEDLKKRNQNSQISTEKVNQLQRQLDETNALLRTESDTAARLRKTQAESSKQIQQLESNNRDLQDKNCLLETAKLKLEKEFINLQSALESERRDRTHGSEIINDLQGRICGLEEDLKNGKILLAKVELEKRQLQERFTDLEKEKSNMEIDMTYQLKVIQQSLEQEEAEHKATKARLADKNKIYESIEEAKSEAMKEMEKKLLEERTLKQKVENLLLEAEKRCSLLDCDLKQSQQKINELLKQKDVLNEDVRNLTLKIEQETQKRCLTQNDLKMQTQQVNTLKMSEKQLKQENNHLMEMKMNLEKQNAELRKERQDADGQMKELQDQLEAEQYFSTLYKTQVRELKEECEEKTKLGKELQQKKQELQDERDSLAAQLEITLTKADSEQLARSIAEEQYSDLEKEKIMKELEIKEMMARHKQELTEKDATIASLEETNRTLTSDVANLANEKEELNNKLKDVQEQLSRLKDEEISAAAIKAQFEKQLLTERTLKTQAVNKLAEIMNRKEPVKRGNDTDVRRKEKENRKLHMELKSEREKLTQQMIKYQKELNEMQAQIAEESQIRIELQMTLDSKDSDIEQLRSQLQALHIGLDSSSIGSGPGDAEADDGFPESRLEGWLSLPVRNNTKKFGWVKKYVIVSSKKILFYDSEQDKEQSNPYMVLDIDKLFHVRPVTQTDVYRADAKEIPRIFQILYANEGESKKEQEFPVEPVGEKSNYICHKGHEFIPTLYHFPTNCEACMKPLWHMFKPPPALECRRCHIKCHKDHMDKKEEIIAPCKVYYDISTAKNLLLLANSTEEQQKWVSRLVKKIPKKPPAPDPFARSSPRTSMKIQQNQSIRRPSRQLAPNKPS
# Sequence of ROCK1 (Q13464 whole entry, species assumed): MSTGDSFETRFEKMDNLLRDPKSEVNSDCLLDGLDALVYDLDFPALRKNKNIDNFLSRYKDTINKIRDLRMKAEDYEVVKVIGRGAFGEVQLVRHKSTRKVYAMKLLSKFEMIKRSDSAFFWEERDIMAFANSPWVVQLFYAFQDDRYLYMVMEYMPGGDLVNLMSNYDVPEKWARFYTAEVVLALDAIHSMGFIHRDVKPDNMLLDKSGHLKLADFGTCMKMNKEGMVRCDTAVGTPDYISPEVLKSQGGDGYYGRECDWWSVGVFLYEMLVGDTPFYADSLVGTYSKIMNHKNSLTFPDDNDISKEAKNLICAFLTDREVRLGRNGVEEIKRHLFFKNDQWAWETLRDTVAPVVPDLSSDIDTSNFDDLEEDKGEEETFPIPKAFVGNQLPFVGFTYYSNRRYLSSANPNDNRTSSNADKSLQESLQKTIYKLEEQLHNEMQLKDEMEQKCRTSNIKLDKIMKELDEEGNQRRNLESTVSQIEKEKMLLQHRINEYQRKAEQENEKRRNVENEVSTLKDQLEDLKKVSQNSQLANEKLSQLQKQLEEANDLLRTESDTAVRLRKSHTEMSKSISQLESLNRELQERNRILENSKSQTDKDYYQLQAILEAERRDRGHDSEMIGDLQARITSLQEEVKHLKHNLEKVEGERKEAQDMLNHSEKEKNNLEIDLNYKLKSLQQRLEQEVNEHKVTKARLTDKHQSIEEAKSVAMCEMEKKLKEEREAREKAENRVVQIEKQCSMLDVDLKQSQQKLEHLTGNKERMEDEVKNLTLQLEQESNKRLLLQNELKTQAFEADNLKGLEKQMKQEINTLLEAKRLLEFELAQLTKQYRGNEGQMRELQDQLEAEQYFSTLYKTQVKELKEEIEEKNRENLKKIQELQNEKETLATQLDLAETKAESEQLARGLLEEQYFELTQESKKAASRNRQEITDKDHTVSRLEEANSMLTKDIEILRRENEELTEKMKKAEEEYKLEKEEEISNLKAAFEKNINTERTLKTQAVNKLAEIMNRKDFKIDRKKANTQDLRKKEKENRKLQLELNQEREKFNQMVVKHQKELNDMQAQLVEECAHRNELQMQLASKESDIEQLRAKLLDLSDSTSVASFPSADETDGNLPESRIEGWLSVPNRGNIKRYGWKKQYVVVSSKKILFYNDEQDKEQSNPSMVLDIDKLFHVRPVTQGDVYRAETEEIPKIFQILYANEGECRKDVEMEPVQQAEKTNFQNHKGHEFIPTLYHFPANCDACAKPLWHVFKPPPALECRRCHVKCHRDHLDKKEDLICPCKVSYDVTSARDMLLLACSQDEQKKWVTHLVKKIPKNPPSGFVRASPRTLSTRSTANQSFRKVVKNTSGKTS
compound,measurement,setting,value
"COc1ccc2c(c1)N(C(=O)Nc1ccc(-c3c[nH]c(=O)c4ccccc34)cc1)CC2 [Example 80, 6-Methoxy-N-(4-(1-oxo-1,2-dihydroisoquinolin-4-yl)phenyl)indoline-1-carboxamide]",IC50,ROCK1,0.1 to 100 nM
same,IC50,ROCK2,0.1 to 100 nM
"O=C(Cc1ccc(-c2n[nH]c(=O)c3ccccc23)cc1)N1CCC(Cc2ccccc2)CC1 [Example 17, 4-{4-[2-(4-benzylpiperidin-1-yl)-2-oxoethyl]phenyl}-1,2-dihydrophthalazin-1-one]",IC50,ROCK1,1000 to 50000 nM
same,IC50,ROCK2,0.1 to 100 nM
"Cc1csc(C(=O)Nc2ccc(-c3n[nH]c(=O)c4ccccc34)cc2)n1 [Example 50, 4-methyl-N-[4-(4-oxo-3,4-dihydrophthalazin-1-yl)phenyl]-1,3-thiazole-2-carboxamide]",IC50,ROCK1,0.1 to 100 nM
same,IC50,ROCK2,0.1 to 100 nM
"O=c1[nH]nc(-c2ccc(Nc3ncc(-c4ccccc4)s3)cc2)c2ccccc12 [Example 88, 4-(4-((5-Phenylthiazol-2-yl)amino)phenyl)phthalazin-1(2H)-one]",IC50,ROCK1,1000 to 50000 nM
same,IC50,ROCK2,0.1 to 100 nM
"CC(C)(O)CNC(=O)CCn1nc(C(=O)Nc2ccc(-c3n[nH]c(=O)c4ccccc34)cc2)c2ccccc21 [Example 336, 1-(3-((2-Hydroxy-2-methylpropyl)amino)-3-oxopropyl)-N-(4-(4-oxo-3,4-dihydrophthalazin-1-yl)phenyl)-1H-indazole-3-carboxamide]",IC50,ROCK1,0.1 to 100 nM
same,IC50,ROCK2,0.1 to 100 nM
"Cc1ccccc1-n1ncc(C(=O)Nc2ccc(-c3n[nH]c(=O)c4ccccc34)cc2)c1C [Example 214, 5-methyl-1-(2-methylphenyl)-N-[4-(4-oxo-3,4-dihydrophthalazin-1-yl)phenyl]-1H-pyrazole-4-carboxamide]",IC50,ROCK1,0.1 to 100 nM
same,IC50,ROCK2,0.1 to 100 nM
"CN(C)c1ccc2cc(C(=O)Nc3ccc(-c4n[nH]c(=O)c5ccccc45)cc3)[nH]c2c1 [Example 94, 6-(dimethylamino)-N-[4-(4-oxo-3,4-dihydrophthalazin-1-yl)phenyl]-1H-indole-2-carboxamide]",IC50,ROCK1,0.1 to 100 nM
same,IC50,ROCK2,0.1 to 100 nM
"2-[4-(4-oxo-3,4- dihydrophthalazin-1- yl)phenyl]-N-[(1S,2R)- 2-phenylcyclopropyl] acetamide [Example 18]",IC50,ROCK1,1000 to 50000 nM
same,IC50,ROCK2,1000 to 50000 nM
"COC(=O)CCn1nc(C(=O)Nc2ccc(-c3n[nH]c(=O)c4ccccc34)cc2)c2ccccc21 [Example 332, Methyl 3-(3-((4-(4-oxo-3,4-dihydrophthalazin-1-yl)phenyl)carbamoyl)-1H-indazol-1-yl)propanoate]",IC50,ROCK1,0.1 to 100 nM
same,IC50,ROCK2,0.1 to 100 nM
"O=C(Nc1ccc(-c2n[nH]c(=O)c3ccccc23)cc1)c1nn(CC(O)COCc2ccccc2)c2ccccc12 (centres unmarked) [Example 147, 1-[3-(benzyloxy)-2-hydroxypropyl]-N-[4-(4-oxo-3,4-dihydrophthalazin-1-yl)phenyl]-1H-indazole-3-carboxamide]",IC50,ROCK1,0.1 to 100 nM
same,IC50,ROCK2,0.1 to 100 nM
"CN1CCC(Oc2ccc3c(c2)N(C(=O)Cc2ccc(-c4n[nH]c(=O)c5ccccc45)cc2)CC3)CC1 [Example 282, 4-[4-(2-{6-[(1-methylpiperidin-4-yl)oxy]-2,3-dihydro-1H-indol-1-yl}-2-oxoethyl)phenyl]-1,2-dihydrophthalazin-1-one]",IC50,ROCK1,101 to 1000 nM
same,IC50,ROCK2,0.1 to 100 nM
"O=C(Cc1ccc(-c2n[nH]c(=O)c3ccccc23)c(F)c1)N1Cc2ccccc2C1 [Example 37, 4-(2-Fluoro-4-(2-(isoindolin-2-yl)-2-oxoethyl)phenyl)phthalazin-1(2H)-one]",IC50,ROCK1,101 to 1000 nM
same,IC50,ROCK2,0.1 to 100 nM
"COCC(O)Cn1cc(C(=O)Nc2ccc(-c3n[nH]c(=O)c4ccccc34)cc2)cn1 (centres unmarked) [Example 379, 1-(2-Hydroxy-3-methoxypropyl)-N-(4-(4-oxo-3,4-dihydrophthalazin-1-yl)phenyl)-1H-pyrazole-4-carboxamide]",IC50,ROCK1,101 to 1000 nM
same,IC50,ROCK2,0.1 to 100 nM
"COc1cccc(-n2cc(C(=O)Nc3ccc(-c4n[nH]c(=O)c5ccccc45)cc3)cn2)c1 [Example 203, 1-(3-methoxyphenyl)-N-[4-(4-oxo-3,4-dihydrophthalazin-1-yl)phenyl]-1H-pyrazole-4-carboxamide]",IC50,ROCK1,101 to 1000 nM
same,IC50,ROCK2,0.1 to 100 nM
"O=C(c1ccc2c(c1)N(C(=O)Cc1ccc(-c3n[nH]c(=O)c4ccccc34)cc1)CC2)N1CCOCC1 [Example 293, 4-(4-{2-[6-(morpholine-4-carbonyl)-2,3-dihydro-1H-indol-1-yl]-2-oxoethyl}phenyl)-1,2-dihydrophthalazin-1-one]",IC50,ROCK1,101 to 1000 nM
same,IC50,ROCK2,0.1 to 100 nM
"O=C(Cc1ccc(-c2n[nH]c(=O)c3ccccc23)cc1)Nc1noc2c1CCCC2 [Example 276, 2-[4-(4-oxo-3,4-dihydrophthalazin-1-yl)phenyl]-N-(4,5,6,7-tetrahydro-1,2-benzoxazol-3-yl)acetamide]",IC50,ROCK1,1000 to 50000 nM
same,IC50,ROCK2,0.1 to 100 nM
"O=C(Cc1ccc(-c2n[nH]c(=O)c3ccccc23)cc1)N1CCc2ccc(OCC3COC3)cc21 [Example 284, 4-(4-{2-[6-(oxetan-3-ylmethoxy)-2,3-dihydro-1H-indol-1-yl]-2-oxoethyl}phenyl)-1,2-dihydrophthalazin-1-one]",IC50,ROCK1,0.1 to 100 nM
same,IC50,ROCK2,0.1 to 100 nM
"Cc1cc(CC(=O)N2Cc3ccccc3C2)ccc1-c1n[nH]c(=O)c2ccccc12 [Example 260, 4-(4-(2-(Isoindolin-2-yl)-2-oxoethyl)-2-methylphenyl)phthalazin-1(2H)-one]",IC50,ROCK1,101 to 1000 nM
same,IC50,ROCK2,0.1 to 100 nM
"O=C(Nc1ccc(-c2n[nH]c(=O)c3ccccc23)cc1)c1cnn(-c2ccccc2)c1Cl [Example 199, 5-chloro-N-[4-(4-oxo-3,4-dihydrophthalazin-1-yl)phenyl]-1-phenyl-1H-pyrazole-4-carboxamide]",IC50,ROCK1,0.1 to 100 nM
same,IC50,ROCK2,0.1 to 100 nM
"O=C(Cc1ccc(-c2n[nH]c(=O)c3ccccc23)cc1)N1CCCc2ccccc21 [Example 34, 4-{4-[2-oxo-2-(1,2,3,4-tetrahydroquinolin-1-yl)ethyl]phenyl}-1,2-dihydrophthalazin-1-one]",IC50,ROCK1,1000 to 50000 nM
same,IC50,ROCK2,101 to 1000 nM
"O=C(Nc1ccc(-c2n[nH]c(=O)c3ccccc23)cc1)c1cn2ccccc2n1 [Example 89, N-[4-(4-oxo-3,4-dihydrophthalazin-1-yl)phenyl]imidazo[1,2-a]pyridine-2-carboxamide]",IC50,ROCK1,101 to 1000 nM
same,IC50,ROCK2,0.1 to 100 nM
"CC1(Cn2nc(C(=O)Nc3ccc(-c4n[nH]c(=O)c5ccccc45)c(Cl)c3)c3ccccc32)COC1 [Example 320, N-[3-chloro-4-(4-oxo-3,4-dihydrophthalazin-1-yl)phenyl]-1-[(3-methyloxetan-3-yl)methyl]-1H-indazole-3-carboxamide]",IC50,ROCK1,0.1 to 100 nM
same,IC50,ROCK2,0.1 to 100 nM
"Cc1nc(C(=O)Nc2ccc(-c3n[nH]c(=O)c4ccccc34)cc2)c[nH]1 [Example 242, 2-methyl-N-[4-(4-oxo-3,4-dihydrophthalazin-1-yl)phenyl]-1H-imidazole-4-carboxamide]",IC50,ROCK1,101 to 1000 nM
same,IC50,ROCK2,0.1 to 100 nM
"O=C(Nc1ccc(-c2n[nH]c(=O)c3ccccc23)cc1)c1cn(C2CCNCC2)nn1 [Example 372, N-(4-(4-Oxo-3,4-dihydrophthalazin-1-yl)phenyl)-1-(piperidin-4-yl)-1H-1,2,3-triazole-4-carboxamide]",IC50,ROCK1,101 to 1000 nM
same,IC50,ROCK2,101 to 1000 nM
"O=C(Nc1ccc(-c2n[nH]c(=O)c3ccccc23)cc1)c1onc2ccccc12 [Example 93, N-[4-(4-oxo-3,4-dihydrophthalazin-1-yl)phenyl]-2,1-benzoxazole-3-carboxamide]",IC50,ROCK1,0.1 to 100 nM
same,IC50,ROCK2,0.1 to 100 nM
